Laboratory results reported in US5510371A, “Inhibitors of farnesyl-protein transferase” (Merck & Co., Inc., priority 1994, dated 1996).

Target: T1, human recombinant farnesyl-protein transferase (Homo sapiens, UniProt P49354+P49356)
T1 construct: made in house; host or cells: Escherichia coli
Assay: In vitro inhibition of ras farnesyl transferase
Type: biochemical
Conditions: 50 nM 3H-FPP, 0.1 μM ras-CVIM, 2 μg human recombinant FPTase, pH 7.5, 30 minutes at 31° C.; read-out: LC50 (nM) (IC50: concentration of the test compound which gives 50% inhibition of FPTase)
Experimental: In vitro inhibition of ras farnesyl transferase
Human FPTase was expressed in Escherichia coli and then the recombinant protein was purified as described by Omer, et al., Biochemistry 32, 5167 (1993). The assay was performed in a volume of 100 μl containing 100 mM N-(2-hydroxy ethyl) piperazine-N'-(2-ethane sulfonic acid) (HEPES), pH 7.5, 5 mM MgCl2, 5 mM dithiothreitol (DTT), 10 μM ZnCl2, 0.1% (w/v) polyethylene glycol 20,000, 50 nM 3H!-Farnesyl Pyrophosphate ( 3H!-FPP, […], NEN-DuPont), 0.1 μM ras-CVIM and 2 μg of human recombinant farnesyl-protein transferase. The assay was run in the presence of the compound(s) for 30 minutes at 31° C. and then quenched by placing the tubes in an ice bath for 5 minutes. Trichloracetic acid (TCA, 0.1 ml of 30% (v/v) in ethanol followed by 50 μl of 0.25% (w/v) Bovine Serum Albumin in water was added to the tubes, vortexed for 5 minutes then placed in a 37° C. water bath for 30 minutes to facilitate the hydrolysis of the unused farnesyl pyrophosphate. The precipitate was collected on a Packard double thickness filtermat, using a Tomtec Mach II Cell Harvester and washed with 8 ml of 100% Ethanol. The filtermats were dried in a microwave oven and counted in a LKB Betaplate counter. The compounds were dissolved in dimethyl sulfoxide and were diluted 20-fold into the assay.
Inhibition of RAS farnesylation by compounds of this invention* […]

T1 sequence (P49356 whole entry, one chain of several): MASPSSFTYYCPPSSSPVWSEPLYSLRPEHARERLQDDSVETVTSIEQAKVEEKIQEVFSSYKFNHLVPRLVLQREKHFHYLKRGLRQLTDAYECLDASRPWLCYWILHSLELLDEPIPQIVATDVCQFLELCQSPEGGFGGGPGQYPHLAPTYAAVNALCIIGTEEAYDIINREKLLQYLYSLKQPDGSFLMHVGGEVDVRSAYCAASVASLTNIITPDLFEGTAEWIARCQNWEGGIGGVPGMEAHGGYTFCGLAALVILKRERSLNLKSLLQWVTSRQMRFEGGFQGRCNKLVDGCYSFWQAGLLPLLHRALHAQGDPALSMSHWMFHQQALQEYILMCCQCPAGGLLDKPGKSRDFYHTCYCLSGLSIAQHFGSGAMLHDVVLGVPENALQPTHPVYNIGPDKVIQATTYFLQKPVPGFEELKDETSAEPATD

Compound: CCC(CC(C)C(=O)O)C(=O)CCC1=CC(C)CC(C)=CC(C)C(O)C(C)CCC(CCCCC=CC(C)CCC(C)OC(=O)CC(CC(=O)O)C(=O)O)OC(=O)CC(C(=O)O)CC(=O)OC1 (stereo not shown) [Compound 1, 1,2,3-propanetricarboxylic acid 1-10-4-carboxy 19-(6-carboxy-4-ethyl-3-oxoheptyl)-12-hydroxy-11,13,15,17-tetramethyl-2,6-dioxo-1,7-dioxacycloeiocosa-14,18-dien-8-yl!-1,4-dimethyl-5-decenyl! ester]
- IC50: 230 nM
